Reference: patent US20250345459A1, “COMPOUND OR SALT THEREOF, LIPID COMPOSITION, PHARMACEUTICAL COMPOSITION, AND DELIVERY CARRIER” (FUJIFILM Corporation, priority 2023, published 2025)

What was measured:
[1] = Particle size of EPO mRNA-encapsulating lipid nanoparticles; type: physicochemical; conditions: LNP with neutral lipid DSPC; mixed solution PBS; Lipid/Nucleic acid (wt/wt) 20
Method: (§1) The compounds described in Table 1, the neutral lipid, cholesterol (product name: Cholesterol HP; NIPPON FINE CHEMICAL CO., LTD.), and 1,2-dimyristoyl-rac-glycero-3-(methylpolyoxyethylene 2000) (hereinafter, called DMG-PEG2000) (product name: SUNBRIGHT® GM-020; NOF corporation) were dissolved in ethanol at a molar ratio of ionized lipid:neutral lipid:cholesterol:DMG-PEG2000=50:10:38.5:1.5 mol % such that the total lipid concentration was 12.5 mmol/L, to obtain an oil phase.
(§2) As the neutral lipid, 1,2-distearoyl-sn-glycero-3-phosphocholine (product name: COATSOME® MC-8080; NOF corporation) (hereinafter, DSPC), or L-α-dioleoylphosphatidylethanolamine (hereinafter, DOPE) (product name: COATSOME® MC-8181; NOF corporation) was used.
(§3) EPO mRNA (product name: CleanCap EPO mRNA (5 moU); TriLink) was diluted with 50 mmol/L citrate buffer having a pH 4.0 such that the weight ratio of total lipid concentration to mRNA concentration is about 20:1 to 64:1, thereby obtaining a water phase. Then, the water phase and the oil phase were mixed together using NanoAssemblr (Precision NanoSystems) such that the volume ratio of water phase:oil phase was 3:1. The mixed solution was diluted 2-fold with any of phosphate buffered physiological saline (PBS), water, or a 20 mmol/L Tris buffer solution (pH 7.4) to obtain a dispersion liquid of mRNA lipid nanoparticles. The dispersion liquid was dialyzed with 20 mmol/L Tris buffer solution (pH 7.4) containing 8% sucrose using a dialysis cassette (Slide-A-Lyzer G2, MWCO: 10 kD, Thermo Fisher Scientific) to remove ethanol, thereby obtaining EPO mRNA-encapsulating lipid nanoparticles.
The particle size of the mRNA-encapsulating lipid nanoparticles was measured by 5-fold diluting the dispersion liquid of lipid nanoparticle with phosphate buffered physiological saline (PBS) using a particle size measurement device NanoSaqla (Otsuka Electronics Co., Ltd.).

EPO mRNA = assay: mRNA encapsulation rate of mRNA lipid nanoparticles; type: physicochemical; conditions: LNP with neutral lipid DSPC; mixed solution PBS; Lipid/Nucleic acid (wt/wt) 20
Method: as §1, §2, §3
EPO mRNA was diluted with MilliQ water to prepare a diluted sample in 2-fold dilution series from 100 µg/mL to […], and a calibration curve solution was prepared. 50 μL of the calibration curve solution or the mRNA lipid nanoparticles was mixed with 450 μL of methanol to prepare a measurement solution.
The absorbance of each measurement solution at 260 nm and 330 nm was measured using a UV plate reader (Multiskan Go, Thermo Fisher Scientific), the absorbance at 330 nm was subtracted from the absorbance at 260 nm, and the result was defined as the absorbance of each measurement solution. The total […] nucleic acid concentration was calculated from the calibration curve using the absorbance of each sample measurement solution.
The concentration of the outer water phase nucleic acid was quantified by a standard addition method using a QuanT-iT RiboGreen RNA Assay Kit (Thermo Fisher Scientific). First, a 20× TE buffer included in the above kit was diluted with water, thereby obtaining a 1×TE buffer. TE represents Tris/EDTA (ethylenediaminetetraacetic acid). EPO mRNA was diluted with a TE buffer such that the final concentration was 0 to 400 ng/mL to prepare a nucleic acid diluted series. 10 μL of mRNA lipid nanoparticles diluted 5-fold with TE buffer and 90 µL of a nucleic acid dilution series were mixed in a 96-well plate, 100 μL of a Ribogreen reagent diluted 200-fold with TE buffer was added to each well, and then fluorescence (excitation wavelength: 485 nm, fluorescence wavelength: 535 nm) was measured using a fluorescence plate reader (Infinite 200 Pro M nano+, TECAN). From the obtained results, the outer water phase nucleic acid concentration of each measurement solution was calculated according to the standard addition method.
By using the quantification results of the total mRNA concentration and the mRNA concentration in the outer water phase that were obtained through the above steps, the mRNA encapsulation rate of the mRNA lipid nanoparticles was calculated according to the following Equation. […]

ICR mice = assay: EPO protein expression in mice after intravenous EPO mRNA lipid nanoparticles; type: in vivo; conditions: mRNA 0.1 mg/kg, plasma 6 hours after administration, neutral lipid DSPC, Lipid/Nucleic acid (wt/wt) 20, Comparative Example 1 is 1
Method: as §1, §2, §3
The dispersion liquid of mRNA lipid nanoparticles prepared in above <Preparation of EPO mRNA-encapsulating lipid nanoparticles> was intravenously administered to ICR mice at a mRNA dosage of 0.1 mg/kg. 6 hours after the administration, blood was collected from the caudal vena cava, thereby obtaining plasma. The human EPO […] was quantified by using the obtained blood plasma and Erythropoietin (EPO) Human Elisa Kit (Abcam.plc). The quantitative value is described as a relative amount of EPO protein in a case where Comparative Example 1 is 1.

Compound | Particle size (nm) [1] [nm] | Nucleic acid encapsulation rate (%) (EPO mRNA) | Relative amount of EPO protein (to Comparative Example 1) (ICR mice)
CCCCCCCCCCCCOC(=O)CN(CC(=O)OCCCCCCCCCCCC)C(=O)OCCN(CCOC(=O)N(CC(=O)OCCCCCCCCCCCC)CC(=O)OCCCCCCCCCCCC)CCN(CC)CC [Example 32, didodecyl 8-(2-(diethylamino)ethyl)-3,13-bis(2-(dodecyloxy)-2-oxoethyl)-4,12-dioxo-5,11-dioxa-3,8,13-triazapentadecanedioate] | 203 | 60 | –
CCCCCCCCN(CCCCC(=O)OCCCCCCC)C(=O)OCCN(CCOC(=O)N(CCCCCCCC)CCCCC(=O)OCC(CCCCCC)CCCCCC)CCN(CC)CC [Example 40, 1-Heptyl 21-(2-hexyloctyl) 11-(2-(diethylamino)ethyl)-6,16-dioctyl-7,15-dioxo-8,14-dioxa-6,11,16-triazahenicosanedioate] | 162 | 74 | 8.10
CCCCCCCCCCOC(=O)CN(CC(=O)OCCCCCCCCCC)C(=O)OCCN(CCOC(=O)N(CC(=O)OCCCCCCCCCC)CC(=O)OCCCCCCCCCC)CCN(CC)CC [Example 27, Decyl 2-(2-(2-(bis(2-decoxy-2-oxo-ethyl)carbamoyloxy)ethyl-(2-(diethylamino)ethyl)amino)ethoxycarbonyl-(2-decoxy-2-oxo-ethyl)amino)acetate] | 149 | 82 | 3.85
CCCCCC(CCCCC)COC(=O)CCCCN(CCC)C(=O)OCCN(CCOC(=O)N(CCC)CCCCC(=O)OCC(CCCCC)CCCCC)CCN(CC)CC [Example 15, Bis(2-pentylheptyl) 11-(2-(diethylamino)ethyl)-7,15-dioxo-6,16-dipropyl-8,14-dioxa-6,11,16-triazahenicosanedioate] | 238 | 79 | –
CCCCCCCCCC(=O)OCCN(CCOC(=O)CCCCCCCCC)C(=O)OCCN(CCOC(=O)N(CCOC(=O)CCCCCCCCC)CCOC(=O)CCCCCCCCC)CCN(CC)CC [Example 12, 2-(2-(2-(bis(2-decanoyloxyethyl)carbamoyloxy)ethyl-(2-(diethylamino)ethyl)amino)ethoxycarbonyl-(2-decanoyloxyethyl)amino)ethyl decanoate] | 169 | 62 | –
CCCCCC(CCCCC)COC(=O)CCN(CCCC)C(=O)OCCN(CCOC(=O)N(CCCC)CCC(=O)OCC(CCCCC)CCCCC)CCN(CC)CC [Example 6, Bis(2-pentylheptyl) 4,14-dibutyl-9-(2-(diethylamino)ethyl)-5,13-dioxo-6,12-dioxa-4,9,14-triazaheptadecanedioate] | 183 | 58 | –
CCCCCC(CCCCC)COC(=O)CCCCN(C(=O)OCCN(CCOC(=O)N(CCCCC(=O)OCC(CCCCC)CCCCC)C(C)C)CCN(CC)CC)C(C)C [Example 13, Bis(2-pentylheptyl) 11-(2-(diethylamino)ethyl)-6,16-diisopropyl-7,15-dioxo-8,14-dioxa-6,11,16-triazahenicosanedioate] | 188 | 88 | –
CCCCCC(CCCCC)COC(=O)CCCCN(C(=O)OCCN(CCCN(CC)CC)CCOC(=O)N(CCCCC(=O)OCC(CCCCC)CCCCC)C(C)C)C(C)C [Example 14, Bis(2-pentylheptyl) 11-(3-(diethylamino)propyl)-6,16-diisopropyl-7,15-dioxo-8,14-dioxa-6,11,16-triazahenicosanedioate] | 185 | 97 | –
CCCCCCCCCCCCCOC(=O)CN(CC(=O)OCCCCCCCCCCCCC)C(=O)OCCN(CCOC(=O)N(CC(=O)OCCCCCCCCCCCCC)CC(=O)OCCCCCCCCCCCCC)CCN(CC)CC [Example 34, Ditridecyl 8-(2-(diethylamino)ethyl)-4,12-dioxo-3,13-bis(2-oxo-2-(tridecyloxy)ethyl)-5,11-dioxa-3,8,13-triazapentadecanedioate] | 332 | 33 | –
CCCCCC(CCCCC)COC(=O)CCCCN(CCC)C(=O)OCCN(CCCN(CC)CC)CCOC(=O)N(CCC)CCCCC(=O)OCC(CCCCC)CCCCC [Example 16, Bis(2-pentylheptyl) 11-(3-(diethylamino)propyl)-7,15-dioxo-6,16-dipropyl-8,14-dioxa-6,11,16-triazahenicosanedioate] | 187 | 93 | –

Continued, in another order:

Particle size (nm) [1] [nm] | Nucleic acid encapsulation rate (%) (EPO mRNA) | Compound | Relative amount of EPO protein (to Comparative Example 1) (ICR mice)
167 | 78 | CCCCCCN(CCCCCC(=O)OCC(CCCCC)CCCCC)C(=O)OCCN(CCOC(=O)N(CCCCCC)CCCCCC(=O)OCC(CCCCC)CCCCC)CCN(CC)CC [Example 25, Bis(2-pentylheptyl) 12-(2-(diethylamino)ethyl)-7,17-dihexyl-8,16-dioxo-9,15-dioxa-7,12,17-triazatricosanedioate] | 3.56
82 | 96 | CCCCCCCCN(CCCCCC(=O)OCC(CCCCC)CCCCC)C(=O)OCCN(CCOC(=O)N(CCCCCCCC)CCCCCC(=O)OCC(CCCCC)CCCCC)CCN(CC)CC [Example 50, bis(2-pentylheptyl) 12-(2-(diethylamino)ethyl)-7,17-dioctyl-8,16-dioxo-9,15-dioxa-7,12,17-triazatricosanedioate] | 1.55
165 | 93 | CCCCCCCCN(CCCCC(=O)OCC(CCCCC)CCCCC)C(=O)OCCN(CCCN(CC)CC)CCOC(=O)N(CCCCCCCC)CCCCC(=O)OCC(CCCCC)CCCCC [Example 35, Bis(2-pentylheptyl) 11-(3-(diethylamino)propyl)-6,16-dioctyl-7,15-dioxo-8,14-dioxa-6,11,16-triazahenicosanedioate] | 6.49
224 | 43 | CCCCCC(CCCCC)COC(=O)CCCCN(CC(C)C)C(=O)OCCN(CCOC(=O)N(CCCCC(=O)OCC(CCCCC)CCCCC)CC(C)C)CCN(CC)CC [Example 18, Bis(2-pentylheptyl) 11-(2-(diethylamino)ethyl)-6,16-diisobutyl-7,15-dioxo-8,14-dioxa-6,11,16-triazahenicosanedioate] | –
230 | 64 | CCCCCC(CCCCC)COC(=O)CCCCN(CCCC)C(=O)OCCN(CCOC(=O)N(CCCC)CCCCC(=O)OCC(CCCCC)CCCCC)CCN(CC)CC [Example 21, Bis(2-pentylheptyl) 6,16-dibutyl-11-(2-(diethylamino)ethyl)-7,15-dioxo-8,14-dioxa-6,11,16-triazahenicosanedioate] | –
215 | 73 | CCCCCC(CCCCC)COC(=O)CCN(CCCC)C(=O)OCCN(CCCN(CC)CC)CCOC(=O)N(CCCC)CCC(=O)OCC(CCCCC)CCCCC [Example 7, Bis(2-pentylheptyl) 4,14-dibutyl-9-(3-(diethylamino)propyl)-5,13-dioxo-6,12-dioxa-4,9,14-triazaheptadecanedioate] | –
